These results are taken from ChEMBL document CHEMBL4811302, “Solid-phase synthesis of curcumin mimics and their anticancer activity against human pancreatic, prostate, and colorectal cancer cell lines” (Bioorg Med Chem, 2021).

Activity calls are given as the source filed them. The calls are words filed in the database; no cut-off is given here.

Series [1] can be described thus: Stability of compound in simulated gastric fluid assessed as drug degradation at pH 1.2 at 1 mM measured after 48 hrs by HPLC analysis. In kind it is ADME. Conditions: read-out: Drug degradation.
The test system of series [2] is SW480. Nature of the series: Antiproliferative activity against human SW480 cells assessed as cell death at 100 uM incubated for 72 hrs by trypan blue assay relative to control. Type of series: functional, cell-based.
Series [3] can be described thus: Stability of compound in human serum assessed as parent compound remaining measured upto 96 hrs by HPLC analysis. In kind it is ADME, cell-free.
Series [4] is described as follows: Stability of compound in simulated intestinal fluid assessed as parent compound remaining at pH 6.8 at 1 mM measured after 48 hrs by HPLC analysis. Type of series: ADME. Conditions: simulated gi fluid, pH 6.8, 48 h, 1000 µM.
The test system of series [5] is PANC-1. The experiment in a line: Antiproliferative activity against human PANC-1 cells assessed as reduction in cell growth at 100 uM incubated for 72 hrs by trypan blue assay relative to control. Type of series: functional.
Series [6] has as its system SW480. Nature of the series: Antiproliferative activity against human SW480 cells assessed as reduction in cell growth at 100 uM incubated for 72 hrs by trypan blue assay relative to control. In kind it is functional.
Series [7] can be described thus: Stability of compound in alkaline phosphatase by HPLC analysis. In kind it is ADME.
Series [8] concerns PANC-1. Nature of the series: Antiproliferative activity against human PANC-1 cells assessed as cell death at 100 uM incubated for 72 hrs by trypan blue assay relative to control. In kind it is functional, cell-based.
In series [9] the test system is PC-3. Nature of the series: Antiproliferative activity against human PC-3 cells assessed as cell death at 100 uM incubated for 72 hrs by trypan blue assay (reference value: 3%). In kind it is functional.
For series [10], the system named is PC-3. The experiment in a line: Antiproliferative activity against human PC-3 cells assessed as reduction in cell growth at 100 uM incubated for 72 hrs by trypan blue assay relative to control. Type of series: functional.

As a reminder, the inhibition is the percentage by which the read-out fell short of the control.

For `O=P([O-])(OCCc1ccc(O)c(O)c1)OCCc1ccc(O)c(O)c1.[Na+]`, the degraded at 48 h, 1000 µM in series [1] was under 5%. Further, the outcome in series [2], in series [8] and in series [9] was Active. The Stabilty result in series [3], in series [4] and in series [7] was “Stable” each time. In series [5], the inhibition entry is “inactive”. In series [6], the inhibition at 100 µM was determined as 25%. Besides, the inhibition entry in [10] is “Active”.
As for `OCCc1ccc(O)cc1` [TYROSOL], the inhibition result in series [5] is “inactive”. Besides, the results for the inhibition at 100 µM in series [6] and in series [10] were 12% and 13%, respectively. The outcome in [8] was Active. For the same compound, the Activity in [9] was found to be 7%.
Regarding `COc1cc(CCOP(=O)([O-])OCCc2ccc(O)c(OC)c2)ccc1O.[Na+]`, the degraded at 48 h, 1000 µM in series [1] was under 5%. Moreover, the Stabilty entry in series [3], in series [4] and in [7] was “Stable” in each case. The inhibition entry in [5] is “inactive”. Further, the inhibition entry in series [6] and in [10] was “Active” throughout. Moreover, the outcome in series [8] and in series [9] was Active.
Turning to `COc1cc(CCOP(=O)([O-])OCCc2ccc(O)c(O)c2)ccc1O.[Na+]`, the degraded at 48 h, 1000 µM in [1] is under 5%. The outcome in series [2], in [8] and in series [9] was Active. The Stabilty entry in series [3], in series [4] and in series [7] was “Stable” each time. In addition, the inhibition entry in series [5] is “inactive”. In addition, the inhibition at 100 µM in [6] was found to be 15%. Besides, in [10], the inhibition entry was “Active”.
As to `O=P([O-])(OCCc1ccc(O)cc1)OCCc1ccc(O)cc1.[Na+]`, the degraded at 48 h, 1000 µM in [1] is under 5%. Besides, the Stabilty entry in series [3], in series [4] and in series [7] was “Stable” throughout. The inhibition result in [5] was “inactive”. Moreover, the inhibition result in [6] and in [10] was “Active” in each case. Moreover, the result in [8] and in series [9] was Active.
With `COc1cc(CCOP(=O)([O-])OCCc2ccc(O)cc2)ccc1O.[Na+]`, the degraded at 48 h, 1000 µM in series [1] was under 5%. The Stabilty entry in [3], in series [4] and in series [7] was “Stable” throughout. Moreover, the inhibition entry in [5] is “inactive”. In addition, in series [6], the inhibition entry is “Active”. Also, the result in series [8] was Active. Also, in [9], the Activity is given as 23%. Also, the inhibition at 100 µM in series [10] turned out to be 28%.
Consider `OCCc1ccc(O)c(O)c1` [HYDROXYTYROSOL], for which the inhibition at 100 µM amounted to 15% in series [5], 38% in series [6] and 33% in series [10]. In [8], the outcome was Active.
On to `O=P([O-])(OCCc1ccc(O)cc1)OCCc1ccc(O)c(O)c1.[Na+]`, for which the degraded at 48 h, 1000 µM in [1] was under 5%. In addition, the Stabilty entry in [3], in series [4] and in series [7] was “Stable” in each case. The inhibition entry in [5] is “inactive”. Also, the inhibition result in [6] and in series [10] was “Active” in each case. Further, the result in [8] and in [9] was Active.
As to `COc1cc(CCO)ccc1O`, the inhibition result in series [5] and in series [10] was “inactive” each time. In series [6], the inhibition at 100 µM came to 12%. In addition, the outcome in series [8] and in [9] was Active.
